Target: T1, airway epithelial sodium currents (sodium channel) in canine bronchial epithelia (Canis lupus familiaris, UniProt A0A8I3MKE6+A0A8I3Q679+Q95165)
T1 construct: endogenous in cells; host or cells: primary canine bronchial epithelial cells from freshly excised airways, cultured at air-liquid interface on Snapwell inserts
Experiment: In vitro sodium channel blocking activity (short circuit current, Ussing chambers) in canine bronchial epithelia
Format: cell-based
Conditions: potency in canine bronchial epithelia; for Fold Amiloride*: relative to amiloride (Formula III compounds), value ± spread
Method: One assay used to assess mechanism of action and/or potency of the compounds of (1), (II), and (HI) involves the determination of lumenal drug inhibition of airway epithelial sodium currents measured under short circuit current (ISC) using airway epithelial monolayers mounted in Ussing chambers. Cells obtained from freshly excised human, dog, sheep or rodent airways are seeded onto porous 0.4 micron Snapwell™ Inserts (CoStar), cultured at air-liquid interface (ALI) conditions in hormonally defined media, and assayed for sodium transport activity (ISC) while bathed in Krebs Bicarbonate Ringer (KBR) in Using chambers. All test drug additions are to the lumenal bath with half-log dose addition protocols (from 1×10^−11 M to 3×10^−5 M), and the cumulative change in ISC (inhibition) recorded. All drugs are prepared in dimethyl sulfoxide as stock solutions at a concentration of 1×10^−2 M and stored at −20° C. Eight preparations are typically run in parallel; two preparations per run incorporate amiloride and/or benzamil as positive controls. After the maximal concentration (5×10^−5 M) is administered, the lumenal bath is exchanged three times with fresh drug-free KBR solution, and the resultant ISC measured after each wash for approximately 5 minutes in duration. Reversibility is defined as the percent return to the baseline value for sodium current after the third wash. All data from the voltage clamps are collected via a computer interface and analyzed off-line.
Dose-effect relationships for all compounds are considered and analyzed by the Prism 3.0 program. IC50 values, maximal effective concentrations, and reversibility are calculated and compared to amiloride and benzamil as positive controls.
Amiloride and/or a compound 33 was also tested in this assay as a positive control. The results for the compounds of the present invention are reported as fold-enhancement values relative to amiloride.
Amiloride was also tested in this assay as a positive control. The results for the compounds of the present invention are reported as fold-enhancement values relative to amiloride.

T1 sequence (A0A8I3Q679 entry or part of it): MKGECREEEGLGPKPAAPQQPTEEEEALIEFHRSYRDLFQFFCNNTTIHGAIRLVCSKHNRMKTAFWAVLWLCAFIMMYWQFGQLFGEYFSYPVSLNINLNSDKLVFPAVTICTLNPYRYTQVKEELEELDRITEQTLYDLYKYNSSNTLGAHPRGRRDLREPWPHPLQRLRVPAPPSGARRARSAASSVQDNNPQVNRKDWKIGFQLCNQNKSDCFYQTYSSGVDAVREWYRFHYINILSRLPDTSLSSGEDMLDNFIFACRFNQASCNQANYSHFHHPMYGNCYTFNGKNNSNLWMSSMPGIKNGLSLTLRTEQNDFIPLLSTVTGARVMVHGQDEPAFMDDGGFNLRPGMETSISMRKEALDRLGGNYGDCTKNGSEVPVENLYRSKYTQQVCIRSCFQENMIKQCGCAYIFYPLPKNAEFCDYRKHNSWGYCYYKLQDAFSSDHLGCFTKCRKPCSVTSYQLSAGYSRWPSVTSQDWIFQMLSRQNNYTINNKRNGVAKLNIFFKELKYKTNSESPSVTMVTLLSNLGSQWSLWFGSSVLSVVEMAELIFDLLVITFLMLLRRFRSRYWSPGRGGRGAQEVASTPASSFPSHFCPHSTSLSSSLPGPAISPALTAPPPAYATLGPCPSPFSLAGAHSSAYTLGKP
T1 sequence (A0A8I3MKE6 entry or part of it): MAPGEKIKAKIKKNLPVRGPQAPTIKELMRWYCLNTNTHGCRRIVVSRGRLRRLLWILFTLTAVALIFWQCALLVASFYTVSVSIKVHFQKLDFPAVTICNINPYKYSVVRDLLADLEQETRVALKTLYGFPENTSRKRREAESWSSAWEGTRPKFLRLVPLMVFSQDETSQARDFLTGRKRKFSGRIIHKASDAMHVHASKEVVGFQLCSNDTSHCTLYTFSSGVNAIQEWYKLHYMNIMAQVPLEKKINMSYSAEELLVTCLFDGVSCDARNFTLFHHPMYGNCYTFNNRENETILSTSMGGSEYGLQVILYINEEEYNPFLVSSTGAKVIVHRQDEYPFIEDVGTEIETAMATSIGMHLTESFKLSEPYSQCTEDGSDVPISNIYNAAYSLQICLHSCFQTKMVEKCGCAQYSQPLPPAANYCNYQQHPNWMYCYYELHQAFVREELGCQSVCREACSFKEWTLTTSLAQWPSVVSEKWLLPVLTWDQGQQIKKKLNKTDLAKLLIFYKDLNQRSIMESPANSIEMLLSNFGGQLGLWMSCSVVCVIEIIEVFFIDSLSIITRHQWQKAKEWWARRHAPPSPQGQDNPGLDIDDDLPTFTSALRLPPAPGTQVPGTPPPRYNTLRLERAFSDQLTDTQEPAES
T1 sequence (Q95165 whole entry): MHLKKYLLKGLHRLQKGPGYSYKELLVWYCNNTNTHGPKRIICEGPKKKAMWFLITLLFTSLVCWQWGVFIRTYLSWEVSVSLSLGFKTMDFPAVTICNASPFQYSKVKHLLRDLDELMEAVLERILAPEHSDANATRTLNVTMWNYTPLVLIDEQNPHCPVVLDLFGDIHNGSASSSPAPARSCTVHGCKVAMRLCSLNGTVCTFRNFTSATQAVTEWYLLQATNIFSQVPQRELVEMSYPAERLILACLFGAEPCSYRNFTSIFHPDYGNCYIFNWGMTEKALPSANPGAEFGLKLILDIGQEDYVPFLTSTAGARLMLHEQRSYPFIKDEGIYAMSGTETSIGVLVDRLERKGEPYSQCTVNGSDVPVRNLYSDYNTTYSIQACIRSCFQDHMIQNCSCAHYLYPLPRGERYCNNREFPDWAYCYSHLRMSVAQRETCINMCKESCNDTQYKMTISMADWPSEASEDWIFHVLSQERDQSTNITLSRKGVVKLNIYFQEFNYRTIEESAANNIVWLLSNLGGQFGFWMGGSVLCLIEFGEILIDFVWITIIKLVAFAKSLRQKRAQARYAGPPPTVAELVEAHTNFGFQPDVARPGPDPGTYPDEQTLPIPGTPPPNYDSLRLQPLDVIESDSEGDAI

**Q.** How did the “Fold Enhancement Over Amiloride” value (relative to amiloride (Formula I compounds, Tables 1-4)) turn out when `Cl.N=C(NCCCCc1ccc(O)cc1)NC(=O)c1nc(Cl)c(N)nc1N` [compound V, 4-(4-hydroxyphenyl)butylamidino-3,5-diamino-6-chloropyrazinecarboxamide hydrochloride] was run?
**A.** Its value is 50.3 fold.

**Q.** `Cl.N=C(NCCCCc1ccc(OCC(O)CO)cc1)NC(=O)c1nc(Cl)c(N)nc1N` (centres unmarked) [compound 33, 4-[4-(2,3-Dihydroxypropyloxyl)phenyl]butylamidino-3,5-diamino-6-chloropyrazinecarboxamide hydrochloride] was tested. Which “Fold Amiloride*” value (number in brackets not explained (presumably n), listed as drawing 52: O CH2 CHOH CH2 OH, hydrochloride) did it give?
**A.** The value was 51.95 (50) fold.

**Q.** What about the “Fold Amiloride*” value (number in brackets not explained (presumably n), listed as drawing 53: O CH2 CHOH CH2 OH, hydrochloride) of the same molecule?
**A.** Its value is 51.95 (79) fold.

**Q.** And the “Fold Amiloride*” value (number in brackets not explained, Position=Para, hydrochloride)?
**A.** Its value is 51.55 (79) fold.

**Q.** With `Cl.Cl.N=C(N)NCCOc1ccc(CCCCNC(=N)NC(=O)c2nc(Cl)c(N)nc2N)cc1` [compound 9518, N-(3,5-diamino-6-chloropyrazine-2-carbonyl)-N′-{4-[4-(2-guanidinoethoxy)-phenyl]butyl}guanidine dihydrochloride] as the molecule, how does the “Fold Amiloride*” value (number in brackets not explained) read?
**A.** The value was 120.6 ± 60.8 (11) fold.

Source: patent publication US7745442B2, “Methods of reducing risk of infection from pathogens” (priority 2003, dated 2010)
